In patent US3976673A, “4-Cyclopropylmethyleneoxy-3-chlorophenylacetic acid and salts thereof” (priority 1974, dated 1976):

How the values were obtained:
[1] = tested on: abdominal stretching induced by phenylbenzoquinone; assay: Analgesic activity, Siegmund (phenylbenzoquinone abdominal stretching); format: in vivo, Swiss male mice; details: salts' dosage expressed as acid, vs water controls
Protocol: It was evaluated according to the following methods:
The antagonism towards the abdominal stretching induced by phenylbenzoquinone was evaluated. Swiss male mice weighing 19-21 g were treated orally with the compounds under examination 30 minutes before the endoperitoneal administration of 0.25 ml of a […] aqueous phenylbenzoquinone solution. The animals were kept under observation for 30 minutes after treatment with phenylbenzoquinone and the abdominal stretchings for each animal were counted. 10 Mice for each dosage level were used and the corresponding average values considered. The percentage decrease of the number of abdominal stretchings in the animals treated with the substances under test compared with the controls treated with water was taken as the index of the analgesic activity.

[2] = tested on: pain threshold of rat's paw made edematous by yeast; assay: Analgesic activity, Randall and Selitto (pain threshold of edematous rat paw); format: in vivo, male Wistar rats; details: vs basal values
Protocol: It was evaluated according to the following methods: a. Randall and Selitto The pressure to be exerted on a rat's paw previously made edematous by injecting into the plantar zone 0.1 ml of 20% suspension of yeast until appearance of painful reaction was measured in mmHg. The pain threshold was determined 30 minutes before and 30, 60, 90 and 120 minutes after the administration of the substances under test. 10 Male Wistar rats weighing 170-190 g were used for each dosage level and the corresponding average values considered for each dose. The percentage increase of the pain threshold compared to the basal values is taken as the index of the analgesic activity.

[3] = tested on: hyperpyressia induced by bactopeptone; assay: Anti-piretic activity, hyperpyressia induced by bactopeptone; format: in vivo, Wistar male rats
Protocol: (§1) This was evaluated considering 2 kinds of hyperpyressia. Hyperpyressia induced by:
1 Milliliter of 5% aqueous solution of bactopeptone preincubated for 18 hours at 37°C were injected subcutaneously in Wistar male rats weighing 170-190 g. 4 Hours after treatment with the pyrogen, the animals were divided into groups of ten animals each and treated orally with the substances under examination. The rectal temperature was taken at the beginning of the test, 4 hours after the injection of the pyrogen agent and subsequently 1, 2 and 3 hours after the administration of the substances under test. The difference between the temperature taken in the treated animals and in controls is an index of the anti-pyretic activity.

[4] = tested on: edema induced by carrageenin; assay: Anti-inflammatory activity, Winter's method (carrageenin edema); format: in vivo, male rats; details: 3 hours after carrageenin
Protocol: This was determined according to Winter's method which evaluates the inhibiting effect on the edema induced by carrageenin.
Male rats weighing 170-190 g were treated with the compounds under test and after 60 minutes 0.005 ml of a 1% aqueous solution of carrageenin were injected into the plantar zone of a hind paw of each animal. The volume of the treated paw was determined immediately after the injection and 3 hours later.
10 Animals were used for each dosage level. The increase difference in the volume of the paw of animals treated compared with the controls represents the index of the anti-inflammatory activity. The results obtained, expressed as percentage inhibition of the volume of the edema compared to the controls and evaluated as average value for each dose are listed in Table 3.

[5] = tested on: hyperpyressia induced by yeast; assay: Anti-piretic activity, hyperpyressia induced by yeast; format: in vivo, albino rabbits
Protocol: as §1
To albino rabbits, 1 ml/kg of a 0.2% aqueous suspension of yeast were injected intravenously. The rectal temperature was teken at the beginning of the experiment and 60 minutes after the treatment with the pyrogen agent. Immediately after taking the temperature the compounds under test were administered orally to the animals and the rectal temperatures thereof were subsequently measured after 30, 60, 120 and 180 minutes. 10 Animals were treated for each dose level. The difference between the temperatures taken in the animals treated and in the controls is and index of the antipyretic activity. The results obtained by performing the two methods cited above for the determination of the antipyretic activity are listed in Tables 4 and 5 respectively and evaluated as average value for each dose.

[6] = 25 mg/kg i.p., salts' dosage expressed as acid
[7] = 25 mg/kg os, salts' dosage expressed as acid
[8] = 50 mg/kg i.p., salts' dosage expressed as acid
[9] = 50 mg/kg os, salts' dosage expressed as acid
[10] = 15 mg/kg os, salts' dosage expressed as acid
[11] = 5 mg/kg i.p., salts' dosage expressed as acid
[12] = 10 mg/kg os, salts' dosage expressed as acid

SMILES | % Decrease in number of stretchings ([1]; 25 mg/kg os) | % Decrease in number of stretchings ([1]; 50 mg/kg os) | % Decrease in number of stretchings ([1]; 100 mg/kg os) | % Increase of pain threshold [2, 6] | % Increase of pain threshold [2, 7] | % Increase of pain threshold [2, 8] | % Increase of pain threshold [2, 9] | Rectal temperature, 1 hour after treatment [3, 10] | Rectal temperature, 2 hours after treatment [3, 10] | Rectal temperature, 3 hours after treatment [3, 10] | Rectal temperature, 1 hour after treatment [3, 7] | Rectal temperature, 2 hours after treatment [3, 7] | Rectal temperature, 3 hours after treatment [3, 7] | % Inhibition of oedema ([4]; 2.5 mg/kg i.p.) | % Inhibition of oedema [4, 11] | % Inhibition of oedema [4, 12] | % Inhibition of oedema [4, 6] | % Inhibition of oedema [4, 8] | % Inhibition of oedema [4, 9] | also measured
CCCCC1C(=O)N(c2ccccc2)N(c2ccccc2)C1=O [phenylbutazone, 4-butyl-1,2-diphenyl-3,5-dioxopyrazoline, reference compound] | 3% | 65% | 98% | 3% | 33% | 42% | 94% | 38.3 °C | 38.8 °C | 38.6 °C | 38.1 °C | 38.9 °C | 38.3 °C | 0% | 3% | 0% | 22% | 55% | 28% | Rectal temperature, 1 hour after treatment ([3]; 100 mg/kg os): 38.1 °C; Rectal temperature, 2 hours after treatment ([3]; 100 mg/kg os): 37.6 °C; Rectal temperature, 3 hours after treatment ([3]; 100 mg/kg os): 37.4 °C
O=C(O)Cc1ccc(OCC2CC2)c(Cl)c1 [DL-lysine 4-cyclopropylmethyleneoxy-3-chlorophenylacetate] | 60% | 90% | 100% | 83% | 30% | 103% | 104% | 37.6 °C | 38.0 °C | 37.8 °C | 37.4 °C | 37.0 °C | 36.7 °C | – | 38% | 41% | 64% | – | 81% | –
C=CCOc1ccc(CC(=O)O)cc1Cl [4-allyloxy-3-chlorophenylacetic acid, reference compound] | 27% | 58% | 96% | 7% | 15% | 30% | 57% | 38.2 °C | 38.7 °C | 38.4 °C | 37.6 °C | 38.4 °C | 38.5 °C | 0% | 10% | 18% | 25% | 57% | 34% | % Increase of pain threshold ([2]; 100 mg/kg i.p.): 93%; % Increase of pain threshold ([2]; 100 mg/kg os): 92%; Rectal temperature, 1 hour after treatment ([3]; 50 mg/kg os): 37.7 °C; Rectal temperature, 2 hours after treatment ([3]; 50 mg/kg os): 37.5 °C; Rectal temperature, 3 hours after treatment ([3]; 50 mg/kg os): 37.7 °C; Rectal temperature, 30 mins. after treatment ([5]; 10 mg/kg per os): 40.30 °C; Rectal temperature, 60 mins. after treatment ([5]; 10 mg/kg per os): 40.13 °C; Rectal temperature, 120 mins. after treatment ([5]; 10 mg/kg per os): 40.06 °C; Rectal temperature, 180 mins. after treatment ([5]; 10 mg/kg per os): 40.03 °C; Rectal temperature, 30 mins. after treatment ([5]; 25 mg/kg per os): 40.35 °C; Rectal temperature, 60 mins. after treatment ([5]; 25 mg/kg per os): 39.85 °C; Rectal temperature, 120 mins. after treatment ([5]; 25 mg/kg per os): 39.30 °C; Rectal temperature, 180 mins. after treatment ([5]; 25 mg/kg per os): 39.25 °C
O=C([O-])Cc1ccc(OCC2CC2)c(Cl)c1.O=C([O-])Cc1ccc(OCC2CC2)c(Cl)c1.[Cu+2] [copper 4-cyclopropylmethyleneoxy-3-chlorophenylacetate] | 50% | 81% | 99% | 67% | 62% | 121% | 116% | 38.1 °C | 37.7 °C | 36.7 °C | 37.8 °C | 37.2 °C | 36.6 °C | – | 32% | 38% | 51% | 61% | 71% | –
